Assays:
[1] = system: dengue virus type 1; test: Antiviral activity against Dengue virus 1 DGL2 replicon infected in BHK cells assessed as inhibition of viral replicon RNA replication incubated for 72 hrs by Gaussia-luciferase reporter gene assay; type: functional, organism-based
[2] = Cytotoxicity in BHK cells assessed as reduction in cell viability incubated for 72 hrs by cell count reagent SF based microplate spectrophotometry; conditions: cricetinae
[3] = Selectivity index, ratio of CC50 for cytotoxicity in BHK cells to IC50 for antiviral activity against Dengue virus 1 DGL2 replicon infected in BHK cells; type: toxicity, cell-based; conditions: hamster, read-out: Ratio CC50/IC50

| Compound | IC50 [1] [µM] | CC50 at 72 h [2] [µM] | selectivity ratio [3] |
| --- | --- | --- | --- |
| C#Cc1c(C#N)ncn1[C@@H]1O[C@H](CO)[C@@H](O)[C@H]1O | 0.55 | 3.99 | 7.25 |
| NC(=O)c1ncn([C@@H]2O[C@H](CO)[C@@H](O)[C@H]2O)n1 [RIBAVIRIN] | 6.66 | 49 | 7.35 |
| C#Cc1c(C#N)ncn1[C@@H]1[Se][C@H](CO)[C@@H](O)[C@H]1O | 22.3 | > 50 | > 2.24 |
| C#Cc1c(C(N)=O)ncn1[C@@H]1[Se][C@H](CO)[C@@H](O)[C@H]1O | > 20 | > 50 |  |
| C#Cc1c(C(N)=O)ncn1[C@@H]1S[C@H](CO)[C@@H](O)[C@H]1O | 14.6 | > 50 | > 3.42 |
| C#Cc1c(C#N)ncn1[C@@H]1S[C@H](CO)[C@@H](O)[C@H]1O | 6.57 | > 50 | > 7.61 |
| C#Cc1c(C(N)=O)ncn1[C@@H]1O[C@H](CO)[C@@H](O)[C@H]1O | 0.27 | 1.24 | 4.59 |
